One may read the IC50 as the point on the concentration scale where inhibition reaches its midpoint.

Molecules are shown by their SMILES.

Human recombinant Histone Deacetylase 8 (HDAC8), sequence (Q9BY41 whole entry): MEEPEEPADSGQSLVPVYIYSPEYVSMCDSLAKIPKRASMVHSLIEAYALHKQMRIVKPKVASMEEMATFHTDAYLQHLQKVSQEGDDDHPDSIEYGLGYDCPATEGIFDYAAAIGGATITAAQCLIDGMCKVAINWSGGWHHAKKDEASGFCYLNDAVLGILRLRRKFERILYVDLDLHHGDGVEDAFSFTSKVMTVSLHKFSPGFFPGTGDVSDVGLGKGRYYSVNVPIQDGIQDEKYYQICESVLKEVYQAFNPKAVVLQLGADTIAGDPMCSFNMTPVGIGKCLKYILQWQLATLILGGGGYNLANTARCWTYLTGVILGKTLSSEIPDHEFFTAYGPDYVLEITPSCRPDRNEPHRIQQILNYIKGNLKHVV

The first assay concerns the target Human recombinant Histone Deacetylase 8 (HDAC8) (Homo sapiens (Human), UniProt Q9BY41). In words: HDAC8 Enzymatic Assay (HDAC-Glo I/II luminescence). Conditions: HDAC8; read-out: IC50. Type of assay: biochemical. The procedure, abridged:
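Human recombinant HDAC8 (1.5 nM final) preincubated with compound for 30 min, then reacted with 50 μM Boc-GAK(Ac)-aminoluciferin plus trypsin-containing developer for 15 min at room temperature, pH 8.0, 0.5% DMSO. Luminescence read-out; IC50 from percent control activity versus log concentration.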
In the case of `O=C(NO)C(Cc1ccccc1)n1nc(C#CC2CC2)c2ccnc(Cl)c21` (stereo not shown) [Compound I-0126, 2-[7-Chloro-3-(cyclopropylethynyl)-1H-pyrazolo[3,4-c]pyridin-1-yl]-N-hydroxy-3-phenylpropanamide], the 50% inhibitory concentration (IC50) amounted to 101 nM. On the same count and under the same terms, the value for `O=C(NO)C(Cc1ccccc1)n1nc2c(Cl)nccc2c1C#CC1CC1` (stereo not shown) [Compound I-0127, 2-[7-Chloro-3-(cyclopropylethynyl)-2H-pyrazolo[3,4-c]pyridin-2-yl]-N-hydroxy-3-phenylpropanamide] was 5.7 nM; that for `Cn1nccc1-c1nccc2c(C#CC3CC3)n(C(Cc3ccccc3)C(=O)NO)nc12` (stereo not shown) [Compound I-0128, 2-[3-(Cyclopropylethynyl)-7-(1-methyl-1H-pyrazol-5-yl)-2H-pyrazolo[3,4-c]pyridin-2-yl]-N-hydroxy-3-phenylpropanamide] was 4.3 nM. Same read-out and setting: the value for `O=C(NO)C(Cc1ccccc1)c1cnc2c(Cl)cccn12` (stereo not shown) [Compound I-0134, 2-(8-Chloroimidazo[1,2-a]pyridin-3-yl)-N-hydroxy-3-phenylpropanamide] was 258 nM.

Still in this assay, the particulars now being: class symbols, Table 14; read-out: HDAC8 IC50.
As for `Cn1cc(-c2cccc3cn(C(Cc4ccccc4)C(=O)NO)nc23)cn1` (stereo not shown) [Compound I-0109, N-hydroxy-2-(7-(1-methyl-1H-pyrazol-4-yl)-2H-indazol-2-yl)-3-phenylpropanamide], the 50% inhibitory concentration (IC50) fell in the range of 200 to 500 nM. Still for that read-out and setting: with `CN(C)C(=O)c1ccc(-c2cccc3cn(C(Cc4ccccc4)C(=O)NO)nc23)cc1` (stereo not shown) [Compound I-0110, 4-(2-(1-(hydroxyamino)-1-oxo-3-phenylpropan-2-yl)-2H-indazol-7-yl)-N,N-dimethylbenzamide] the figure was at most 50 nM.

With `Cc1nn(C)c(C)c1-c1cccc2cn(C(Cc3ccccc3)C(=O)NO)nc12` (stereo not shown) [Compound I-0111, N-hydroxy-3-phenyl-2-(7-(1,3,5-trimethyl-1H-pyrazol-4-yl)-2H-indazol-2-yl)propanamide], the IC50 is above 500 nM. The same measure, in the same setting: the value for `O=C(NO)C(Cc1ccccc1)c1cnc2cc(-c3cncnc3)ccn12` (stereo not shown) [Compound I-0112, N-hydroxy-3-phenyl-2-(7-(pyrimidin-5-yl)imidazo[1,2-a]pyridin-3-yl)propanamide] was 50 to 200 nM; that for `O=C(NO)C(Cc1ccccc1)c1cnc2cc(-c3ccncc3)ccn12` (stereo not shown) [Compound I-0113, N-hydroxy-3-phenyl-2-(7-(pyridin-4-yl)imidazo[1,2-a]pyridin-3-yl)propanamide] was above 500 nM; that for `O=C(NO)C(Cc1ccccc1)c1cnc2cc(-c3cccnc3)ccn12` (stereo not shown) [Compound I-0114, N-hydroxy-3-phenyl-2-(7-(pyridin-3-yl)imidazo[1,2-a]pyridin-3-yl)propanamide] was 200 to 500 nM.

Regarding `Cn1nccc1-c1ccn2c(C(Cc3ccccc3)C(=O)NO)cnc2c1` (stereo not shown) [Compound I-0115, N-hydroxy-2-(7-(1-methyl-1H-pyrazol-5-yl)imidazo[1,2-a]pyridin-3-yl)-3-phenylpropanamide], the IC50 was 200 to 500 nM. For `O=C(NO)C(Cc1ccccc1)n1ncc2cc(-c3ccccc3)cnc21` (stereo not shown) [Compound I-0116, N-hydroxy-3-phenyl-2-(5-phenyl-1H-pyrazolo[3,4-b]pyridin-1-yl)propanamide], the IC50 was above 500 nM. Consider `N#Cc1ccc(-c2cnc3c(cnn3C(Cc3ccccc3)C(=O)NO)c2)cc1` (stereo not shown) [Compound I-0117, 2-(5-(4-cyanophenyl)-1H-pyrazolo[3,4-b]pyridin-1-yl)-N-hydroxy-3-phenylpropanamide], for which the 50% inhibitory concentration (IC50) is above 500 nM. Same read-out and setting: with `NC(=O)c1ccc(-c2cnc3c(cnn3C(Cc3ccccc3)C(=O)NO)c2)cc1` (stereo not shown) [Compound I-0118, 4-(1-(1-(hydroxyamino)-1-oxo-3-phenylpropan-2-yl)-1H-pyrazolo[3,4-b]pyridin-5-yl)benzamide] the figure was 200 to 500 nM; with `Cn1nccc1-c1cnc2c(cnn2C(Cc2ccccc2)C(=O)NO)c1` (stereo not shown) [Compound I-0119, N-hydroxy-2-(5-(1-methyl-1H-pyrazol-5-yl)-1H-pyrazolo[3,4-b]pyridin-1-yl)-3-phenylpropanamide], 200 to 500 nM. Turning to `Cn1cc(-c2cnc3c(cnn3C(Cc3ccccc3)C(=O)NO)c2)cn1` (stereo not shown) [Compound I-0120, N-hydroxy-2-(5-(1-methyl-1H-pyrazol-4-yl)-1H-pyrazolo[3,4-b]pyridin-1-yl)-3-phenylpropanamide], the half-inhibitory concentration (IC50) fell in the range of 200 to 500 nM.

For `O=C(NO)C(Cc1ccccc1)n1ncc2cc(-c3cncnc3)cnc21` (stereo not shown) [Compound I-0121, N-hydroxy-3-phenyl-2-(5-(pyrimidin-5-yl)-1H-pyrazolo[3,4-b]pyridin-1-yl)propanamide], the IC50 is 200 to 500 nM. Same read-out and setting: the value for `O=C(NO)C(Cc1ccccc1)n1ncc2cc(Br)cnc21` (stereo not shown) [Compound I-0122, 2-(5-bromo-1H-pyrazolo[3,4-b]pyridin-1-yl)-N-hydroxy-3-phenylpropanamide] was 200 to 500 nM. Same read-out and setting: the value for `O=C(NO)C(Cc1ccccc1)n1cc2cc(Br)cnc2n1` (stereo not shown) [Compound I-0123, 2-(5-bromo-2H-pyrazolo[3,4-b]pyridin-2-yl)-N-hydroxy-3-phenylpropanamide] was 200 to 500 nM; that for `O=C(NO)C(Cc1ccccc1)n1nc(I)c2ccnc(Cl)c21` (stereo not shown) [Compound I-0124, 2-(7-chloro-3-iodo-1H-pyrazolo[3,4-c]pyridin-1-yl)-N-hydroxy-3-phenylpropanamide] was 50 to 200 nM; that for `O=C(NO)C(Cc1ccccc1)n1nc2c(Cl)nccc2c1I` (stereo not shown) [Compound I-0125, 2-(7-chloro-3-iodo-2H-pyrazolo[3,4-c]pyridin-2-yl)-N-hydroxy-3-phenylpropanamide] was 50 to 200 nM. Same read-out and setting: the value for `O=C(NO)C(Cc1ccccc1)n1nc(C#CC2CC2)c2ccnc(Cl)c21` (stereo not shown) [Compound I-0126, 2-[7-Chloro-3-(cyclopropylethynyl)-1H-pyrazolo[3,4-c]pyridin-1-yl]-N-hydroxy-3-phenylpropanamide] was 50 to 200 nM; that for `O=C(NO)C(Cc1ccccc1)n1nc2c(Cl)nccc2c1C#CC1CC1` (stereo not shown) [Compound I-0127, 2-[7-Chloro-3-(cyclopropylethynyl)-2H-pyrazolo[3,4-c]pyridin-2-yl]-N-hydroxy-3-phenylpropanamide] was at most 50 nM. On to `Cn1nccc1-c1nccc2c(C#CC3CC3)n(C(Cc3ccccc3)C(=O)NO)nc12` (stereo not shown) [Compound I-0128, 2-[3-(Cyclopropylethynyl)-7-(1-methyl-1H-pyrazol-5-yl)-2H-pyrazolo[3,4-c]pyridin-2-yl]-N-hydroxy-3-phenylpropanamide], for which the concentration for half-maximal inhibition (IC50) is at most 50 nM. With `O=C(NO)C(Cc1ccccc1)n1cc2ccnc(Cl)c2n1` (stereo not shown) [Compound I-0129, 2-(7-chloro-2H-pyrazolo[3,4-c]pyridin-2-yl)-N-hydroxy-3-phenylpropanamide], the IC50 lay in the range of 200 to 500 nM. Turning to `N#Cc1cccc(-c2cnc3c(cnn3C(Cc3ccccc3)C(=O)NO)c2)c1` (stereo not shown) [Compound I-0130, 2-(5-(3-cyanophenyl)-1H-pyrazolo[3,4-b]pyridin-1-yl)-N-hydroxy-3-phenylpropanamide], the half-maximal inhibitory concentration (IC50) was above 500 nM.

As for `NC(=O)c1cccc(-c2cnc3c(cnn3C(Cc3ccccc3)C(=O)NO)c2)c1` (stereo not shown) [Compound I-0131, 3-(1-(1-(hydroxyamino)-1-oxo-3-phenylpropan-2-yl)-1H-pyrazolo[3,4-b]pyridin-5-yl)benzamide], the IC50 was 200 to 500 nM.

Turning to `O=C(NO)C(Cc1ccccc1)n1ncc2cc(-c3cccnc3)cnc21` (stereo not shown) [Compound I-0132, N-hydroxy-3-phenyl-2-(5-(pyridin-3-yl)-1H-pyrazolo[3,4-b]pyridin-1-yl)propanamide], the IC50 is 200 to 500 nM. Same read-out and setting: the value for `O=C(NO)C(Cc1ccccc1)n1ncc2cc(-c3ccncc3)cnc21` (stereo not shown) [Compound I-0133, N-hydroxy-3-phenyl-2-(5-(pyridin-4-yl)-1H-pyrazolo[3,4-b]pyridin-1-yl)propanamide] was above 500 nM; that for `O=C(NO)C(Cc1ccccc1)c1cnc2c(Cl)cccn12` (stereo not shown) [Compound I-0134, 2-(8-Chloroimidazo[1,2-a]pyridin-3-yl)-N-hydroxy-3-phenylpropanamide] was 200 to 500 nM; that for `O=C(NO)C(Cc1ccccc1)n1nc2c(Cl)cccc2c1I` (stereo not shown) [Compound I-0135, 2-(7-chloro-3-iodo-2H-indazol-2-yl)-N-hydroxy-3-phenylpropanamide] was 200 to 500 nM. As to `O=C(NO)C(Cc1ccccc1)n1nc2c(Cl)cccc2c1C#CC1CC1` (stereo not shown) [Compound I-0136, 2-(7-chloro-3-(cyclopropylethynyl)-2H-indazol-2-yl)-N-hydroxy-3-phenylpropanamide], the IC50 is at most 50 nM. As for `Cn1nccc1-c1cccc2c(C#CC3CC3)n(C(Cc3ccccc3)C(=O)NO)nc12` (stereo not shown) [Compound I-0137, 2-(3-(cyclopropylethynyl)-7-(1-methyl-1H-pyrazol-5-yl)-2H-indazol-2-yl)-N-hydroxy-3-phenylpropanamide], the IC50 was at most 50 nM.

As for `NC(=O)c1ccc(-c2cccc3c(C#CC4CC4)n(C(Cc4ccccc4)C(=O)NO)nc23)cc1` (stereo not shown) [Compound I-0138, 4-(3-(cyclopropylethynyl)-2-(1-(hydroxyamino)-1-oxo-3-phenylpropan-2-yl)-2H-indazol-7-yl)benzamide], the IC50 is at most 50 nM. For the compound `CN(C)C(=O)c1ccc(-c2cccc3c(C#CC4CC4)n(C(Cc4ccccc4)C(=O)NO)nc23)cc1` (stereo not shown) [Compound I-0139, 4-(3-(cyclopropylethynyl)-2-(1-(hydroxyamino)-1-oxo-3-phenylpropan-2-yl)-2H-indazol-7-yl)-N,N-dimethylbenzamide], the half-inhibitory concentration (IC50) is at most 50 nM. Still for that read-out and setting: the value for `NC(=O)c1ccc(-c2nccc3c(C#CC4CC4)n(C(Cc4ccccc4)C(=O)NO)nc23)cc1` (stereo not shown) [Compound I-0140, 4-(3-(cyclopropylethynyl)-2-(1-(hydroxyamino)-1-oxo-3-phenylpropan-2-yl)-2H-pyrazolo[3,4-c]pyridin-7-yl)benzamide] was at most 50 nM.

Take `CNC(=O)c1ccc(-c2nccc3c(C#CC4CC4)n(C(Cc4ccccc4)C(=O)NO)nc23)cc1` (stereo not shown) [Compound I-0141, 4-(3-(cyclopropylethynyl)-2-(1-(hydroxyamino)-1-oxo-3-phenylpropan-2-yl)-2H-pyrazolo[3,4-c]pyridin-7-yl)-N-methylbenzamide]: the IC50 is at most 50 nM. Take `CN(C)C(=O)c1ccc(-c2nccc3c(C#CC4CC4)n(C(Cc4ccccc4)C(=O)NO)nc23)cc1` (stereo not shown) [Compound I-0142, 4-(3-(cyclopropylethynyl)-2-(1-(hydroxyamino)-1-oxo-3-phenylpropan-2-yl)-2H-pyrazolo[3,4-c]pyridin-7-yl)-N,N-dimethylbenzamide]: the half-maximal inhibitory concentration (IC50) is at most 50 nM. On to `O=C(NO)C(Cc1ccccc1)n1ncc2ccc(-c3cnn(CCN4CCOCC4)c3)cc21` (stereo not shown) [Compound I-0143, N-hydroxy-2-(6-(1-(2-morpholinoethyl)-1H-pyrazol-4-yl)-1H-indazol-1-yl)-3-phenylpropanamide], for which the IC50 is above 500 nM. Regarding `CC(=O)N1CCN(c2cncc(-c3ccc4cnn(C(Cc5ccccc5)C(=O)NO)c4c3)c2)CC1` (stereo not shown) [Compound I-0144, 2-(6-(5-(4-acetylpiperazin-1-yl)pyridin-3-yl)-1H-indazol-1-yl)-N-hydroxy-3-phenylpropanamide], the IC50 was in the range of 50 to 200 nM.

These data come from patent US10723705B2, “Heterocyclic compounds and uses thereof” (Incyte Corporation, priority 2015, dated 2020).
